Test results published in US7192973B2, “Piperidine derivatives and their use as modulators of chemokine receptor activity (especially CCR5)” (AstraZeneca AB, priority 2001, dated 2007).
pIC50: −log10 of the molar value.

Target: recombinant human CCR5 receptor (Homo sapiens, UniProt P51681)
Test: in vitro radioligand binding assay: inhibition of the binding of iodinated MIP-1α
Settings: membranes from Chinese hamster ovary cells expressing CCR5; 0.1 nM iodinated MIP-1α; average if tested more than once

Sequence of recombinant human CCR5 receptor (P51681 whole entry): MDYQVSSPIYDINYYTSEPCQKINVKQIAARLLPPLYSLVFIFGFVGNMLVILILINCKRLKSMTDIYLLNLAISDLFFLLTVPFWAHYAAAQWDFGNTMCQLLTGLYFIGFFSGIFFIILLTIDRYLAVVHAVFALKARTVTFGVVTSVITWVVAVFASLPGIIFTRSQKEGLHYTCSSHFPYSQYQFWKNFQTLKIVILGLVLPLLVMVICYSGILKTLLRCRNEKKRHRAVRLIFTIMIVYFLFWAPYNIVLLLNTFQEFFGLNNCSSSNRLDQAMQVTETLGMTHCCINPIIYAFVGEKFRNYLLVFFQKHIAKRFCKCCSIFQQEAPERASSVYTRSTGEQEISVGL

pIC50 | Structure (SMILES)
6.44 | CCN(C(=O)Cc1ccc(S(C)(=O)=O)cc1)C1CCN(CCC(c2ccccc2)N2CCN(C)CC2)CC1 (centres unmarked) [6 of Table I]
8.25 | CCN(C(=O)Cc1ccc(S(C)(=O)=O)cc1)C1CCN(CCC(c2ccccc2)N2CCN(S(=O)(=O)CC(F)(F)F)CC2)CC1 (centres unmarked) [15 of Table II]
